Assay results: patent US9808482B2, “Sulphated hyaluronic acids as regulator agents of the cytokine activity” (FIDIA FARMACEUTICI S.p.A., priority 2009, dated 2017)

Columns and labels:
IL-1 receptor = target: T1, IL-1 receptor (Mus musculus, UniProt P13504); assay: Inhibition of the binding of 125I-IL-1 to its receptor on 3T3 fibroblasts (radioligand binding); set-up: species or system mice; settings: HAS degree 3, both medium and low MW; 3T3 cells, 1 mg/ml, 125I-IL-1 10 pM, 37° C. 2 hours; FIG. 4
T1 construct: the line of murine fibroblasts 3T3 was used, sensitive to the cytotoxic activity of IL-1, expressing its relative receptor; endogenous in cells; host or cells: 3T3 murine fibroblasts
T1 sequence (P13504 20-576): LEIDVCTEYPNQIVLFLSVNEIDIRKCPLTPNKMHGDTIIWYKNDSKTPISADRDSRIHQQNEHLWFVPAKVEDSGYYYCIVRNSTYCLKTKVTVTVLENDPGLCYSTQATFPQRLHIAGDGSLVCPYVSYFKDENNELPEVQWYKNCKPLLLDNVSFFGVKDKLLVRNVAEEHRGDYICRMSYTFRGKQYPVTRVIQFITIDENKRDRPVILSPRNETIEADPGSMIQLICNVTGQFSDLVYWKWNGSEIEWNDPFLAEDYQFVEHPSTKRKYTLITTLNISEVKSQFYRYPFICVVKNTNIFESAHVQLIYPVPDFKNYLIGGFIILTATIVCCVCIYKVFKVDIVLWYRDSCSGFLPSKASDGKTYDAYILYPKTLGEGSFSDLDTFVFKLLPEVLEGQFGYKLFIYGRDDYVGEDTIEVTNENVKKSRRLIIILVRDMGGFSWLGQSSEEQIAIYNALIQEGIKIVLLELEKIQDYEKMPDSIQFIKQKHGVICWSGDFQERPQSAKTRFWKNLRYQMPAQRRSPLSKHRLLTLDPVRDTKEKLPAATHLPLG
Description: The experimental procedure was effected as described in Chin J et al., J Exp Med, 1987, 165:70-86. In short, the line of murine fibroblasts 3T3 was used, sensitive to the cytotoxic activity of IL-1, expressing its relative receptor. […] At the end of the incubation, the cells were washed with phosphate buffer, then dissolved in 2.5 M of NaOH and counted in a γ-counter.

IL-10 = assay: Protein synthesis of IL-10 in human PBMC; type: cell-based; settings: 0.1 or 1 mg/ml, 24 hours, FIG. 9 (HAS1, HAS3)
Description: For these experimentations, mononucleate cells of human peripheral blood (PBMC) were adopted, deriving from many different donors for evaluating the effect of HAS on the production of the cytokines listed above, using: • non-sulfated HA (average MW: 200 KD), • HAS1 and HAS3 (prepared as described in Examples 1-3 (average MW: 200 KD). […] At day zero 100,000 cells were seeded per well (using plates with 96 wells) in 200 μl of medium RPMI 1640, to which 10% of fetal bovine serum, HEPES 10 mM, Glutamine 2 mM, 1% Penicillin-Streptomycin 100 U/ml, had been added. The effect of all the samples was evaluated on non-treated PBMC with agents which stimulate the synthesis of cytokines, or stimulated with Lipopolysaccharide LPS (10 μg/ml) (highly pro-inflammatory) or with Phytohemagglutinin PHA (10 μg/ml) (a substance capable of stimulating the lymphocytes to divide themselves), both agents capable of stimulating the synthesis of cytokines. The cells were treated separately with the three compounds at a concentration of 0.1 mg/ml or 1 mg/ml. After 24 hours of incubation at 37° C. […] The quantification of the inflammation mediators was effected by means of the SearchLight® technology, using a Custom Human 9-Plex Array plate following the protocol indicated by the supplier in the technical card.

IL-6 receptor = target: T2, IL-6 receptor (Homo sapiens, UniProt P08887); assay: Inhibition of the binding of 125I-IL-6 to its receptor on human myeloma U266 (radioligand binding); settings: HAS degree 3, both medium and low MW; U266 cells, 1 mg/ml, 125I-IL-6 0.08 nM, 4° C. 16 hours; FIG. 5
T2 construct: the line of human myeloma U266 was used, sensitive to the cytotoxic activity of IL-6, expressing its relative receptor; endogenous in cells; host or cells: U266 human myeloma cells
T2 sequence (P08887 20-468): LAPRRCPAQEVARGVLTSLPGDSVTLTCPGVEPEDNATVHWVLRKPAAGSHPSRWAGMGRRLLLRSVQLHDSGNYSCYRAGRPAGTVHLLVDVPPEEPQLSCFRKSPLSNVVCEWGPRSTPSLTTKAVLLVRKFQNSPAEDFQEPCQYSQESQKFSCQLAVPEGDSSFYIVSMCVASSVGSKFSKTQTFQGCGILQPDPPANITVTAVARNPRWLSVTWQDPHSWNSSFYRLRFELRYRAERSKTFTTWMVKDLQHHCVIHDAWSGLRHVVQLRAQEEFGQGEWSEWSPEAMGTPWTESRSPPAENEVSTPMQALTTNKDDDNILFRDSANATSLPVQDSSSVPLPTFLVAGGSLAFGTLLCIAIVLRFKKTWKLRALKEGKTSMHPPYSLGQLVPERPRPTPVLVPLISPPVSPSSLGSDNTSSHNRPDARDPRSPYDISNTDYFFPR
Description: The experimental procedure was effected as described in Taga T. et al., J Exp Med, 1987, 166:967-981. In short, the line of human myeloma U266 was used, sensitive to the cytotoxic activity of IL-6, expressing its relative receptor. […] At the end of the incubation, the cells were washed with phosphate buffer, centrifuged at 9,000 rpm and the pellet counted in a γ-counter.

[1] = tested on: Vesicular stomatitis virus; type: cell-based; settings: E6SM cells; samples average MW 200 KD; FIG. 11

| Compound | inhibition of the binding of IL-1 to its receptor (IL-1 receptor) [%] | production of IL-10 (IL-10) | inhibition of the binding of IL-6 to its receptor (IL-6 receptor) | antiviral activity vs VSV (inhibition of cytopathogenicity) [1] |
| --- | --- | --- | --- | --- |
| sulfated hyaluronic acid [HAS] | 30 | evident stimulus | up to 100% |  |
| Nc1nc2c(ncn2COCCO)c(=O)[nH]1 [acyclovir] |  |  |  | inactive |
